The Deep4Chem optical property database

Assay: solvent given as SMILES

Work on `Cc1ccc(C#Cc2ccc3nc4ccc(C#Cc5ccc(C)cc5)cn4c(=O)c3c2)cc1` yielded an emission maximum (in ClCCl) of 480 nm.

With `O=C([O-])c1cc2c(ccc3ccccc32)oc1=O` the emission maximum (in O) was 428 nm.

In the case of `C[Si](C)(C)C#Cc1c2c(=O)c3ccccc3c2c(C#C[Si](C)(C)C)c2c(=O)c3ccccc3c12`, the emission maximum (in ClC(Cl)Cl) is reported as 571 nm.

For `CCNc1cc2oc(=O)cc(C(F)(F)F)c2cc1C`, the emission maximum (in CC#N) was 481 nm.

For `CCCCCCn1c2cc(/C=C/c3cccs3)ccc2c2ccc(/C=C/c3cccs3)cc21`, the emission maximum (in ClC(Cl)Cl) was 427.35 nm.

In the case of `O=c1c2cc(Cl)ccc2[nH]c2ccc(COO)cc12`, the emission maximum (in O) is reported as 425 nm.

`O=C1c2cccc3c(NCc4ccccn4)c4ccccc4c(c23)C(=O)N1Cc1ccccn1` showed an emission maximum (in C1CCOC1) of 609 nm, an emission maximum (in CCCCCC) of 594 nm and an emission maximum (in CCO) of 615 nm. For the same molecule, the emission maximum (in Cc1ccccc1) was 606 nm and the emission maximum (in ClCCl) was 611 nm.

In the case of `Cc1cc(C)c(C2=C3C=CC=[N+]3[B-]3(c4ccccc4)Oc4cc(O)cc5c6ccc(C)cc6c6cc2n3c6c45)c(C)c1` (configuration not stated), the emission maximum (in ClC(Cl)Cl) is reported as 669 nm.

With `COc1ccc(C2=C(c3ccc(OC)cc3)c3cccc4c5c(cc(c34)O2)=NC(C#N)C(C#N)N=5)cc1` (configuration not stated) the emission maximum (in ClCCl) was 632 nm.

`F[B-]1(F)Oc2ccccc2-c2cc(-n3c4ccc(-c5ccccc5)cc4c4cc(-c5ccccc5)ccc43)cc[n+]21` showed an emission maximum (in Cc1ccccc1) of 471 nm and an emission maximum (in O=P(c1ccccc1)(c1ccccc1)c1ccccc1Oc1ccccc1P(=O)(c1ccccc1)c1ccccc1) of 496 nm.

Molecule `N#Cc1ccc(-c2nc(-c3ccccc3)c(-c3ccccc3)[nH]2)cc1` has an emission maximum (in CO) of 435 nm.

`O=CC1=C(c2ccc(-c3cccs3)s2)CCC1` gave an emission maximum (in C1CCOC1) of 479 nm, an emission maximum (in CC#N) of 493 nm and an emission maximum (in CCCCCC) of 456 nm. For the same molecule, the emission maximum (in CCO) was 514 nm, the emission maximum (in OCCOCCO) was 527 nm and the emission maximum (in c1ccncc1) was 494 nm.

`O=c1oc2ccccc2c2c1c(=O)oc1c3ccccc3cc(O)c12` showed an emission maximum (in ClCCl) of 533 nm.

`O=P(c1ccccc1)(c1ccccc1)c1cccc(-n2c(-c3ccccc3P(=O)(c3ccccc3)c3ccccc3)nc3ccccc32)c1` showed an emission maximum (in ClCCl) of 384 nm.

Molecule `Cc1cc(C)c(B(c2ccc(-c3nc4c5ccccc5c5ccccc5c4[nH]3)cc2)c2c(C)cc(C)cc2C)c(C)c1` has an emission maximum (in C1CCOC1) of 456 nm, an emission maximum (in CC(C)=O) of 469 nm and an emission maximum (in CS(C)=O) of 484 nm. For the same molecule, the emission maximum (in Cc1ccccc1) was 435 nm and the emission maximum (in ClCCl) was 454 nm.

In the case of `CCn1c2ccccc2c2c3nsnc3c3c4ccccc4n(CC)c3c21`, the emission maximum (in CN(C)C=O) is reported as 500 nm, the emission maximum (in Cc1ccccc1) is reported as 470 nm and the emission maximum (in ClCCl) is reported as 497 nm.

Work on `CCB1c2ccccc2Nc2ccccc21` yielded an emission maximum (in ClCCl) of 494 nm.

In the case of `COc1ccc2ccccc2c1C1=CC(c2ccccc2)=C(c2ccccc2)C1`, the emission maximum (in ClCCl) is reported as 471 nm.

Molecule `COc1cc(/C=C/c2cc[n+](Cc3ccc(Br)cc3)cc2)ccc1O` has an emission maximum (in CC#N) of 557 nm, an emission maximum (in CC(C)=O) of 562 nm and an emission maximum (in CC(C)CO) of 556 nm. The emission maximum (in CC(C)O) was 559 nm, the emission maximum (in CCC#N) was 559 nm and the emission maximum (in CCCCCCO) was 553 nm. It also gave an emission maximum (in CCCCCO) of 554 nm, an emission maximum (in CCCCO) of 558 nm and an emission maximum (in CCCO) of 559 nm. The emission maximum (in CCO) was 564 nm, the emission maximum (in CN(C)C=O) was 565 nm and the emission maximum (in CN(C)P(=O)(N(C)C)N(C)C) was 567 nm. It also gave an emission maximum (in CO) of 566 nm and an emission maximum (in CS(C)=O) of 568 nm.

In the case of `Cc1cc(-c2ccc(N(c3ccccc3)c3ccccc3)cc2)c2nsnc2c1-c1ccc(C(C)(C)C)cc1`, the emission maximum (in ClCCl) is reported as 575 nm.

`CCn1c2ccccc2c2cc(/C=C/c3cccc(/C=C/c4ccc5c(c4)c4ccccc4n5CC)[n+]3CCCS(=O)(=O)[O-])ccc21` showed an emission maximum (in C1CCOC1) of 581 nm, an emission maximum (in CC#N) of 579 nm and an emission maximum (in CC(C)=O) of 578 nm. The emission maximum (in Cc1ccccc1) was 598 nm.

For `CN(C)c1ccc(/C=C/c2ccncn2)cc1`, the emission maximum (in ClCCl) was 488 nm.

`COc1ccc(-n2c3ccccc3c3cc(C=C(C#N)C#N)ccc32)cc1` showed an emission maximum (in C1CCOC1) of 499 nm, an emission maximum (in CC#N) of 536 nm and an emission maximum (in CC(C)=O) of 525 nm. The emission maximum (in CCOC(C)=O) was 495 nm, the emission maximum (in CO) was 534 nm and the emission maximum (in CS(C)=O) was 547 nm. It also gave an emission maximum (in Cc1ccccc1) of 450 nm and an emission maximum (in ClC(Cl)Cl) of 511 nm.

For `c1cncc(-c2ccc(-c3c4ccccc4c(-c4ccc(-c5cccnc5)cc4)c4cc(-c5cccnc5)ccc34)cc2)c1`, the emission maximum (in ClCCl) was 434 nm.

Work on `CC1(C)C(/C=C/C=C/C=C/C=C2/N(S(=O)(=O)[O-])c3ccc(S(=O)(=O)[O-])cc3C2(C)C)=[N+](S(=O)(=O)[O-])c2ccc(S(=O)(=O)[O-])cc21` yielded an emission maximum (in CO) of 776 nm and an emission maximum (in O) of 771 nm.

`CC(C)(C)c1ccc2c(c1)c1cc3c4cc(C(C)(C)C)ccc4c4c5c6ccc(C(C)(C)C)cc6c6cc7c8cc(C(C)(C)C)ccc8c8c2c1c(c34)c(c78)c65` showed an emission maximum (in CCCCCC) of 679.35 nm, an emission maximum (in CCOCC) of 679.9 nm and an emission maximum (in Cc1ccccc1) of 685.4 nm.

In the case of `C(#Cc1cc2ccc3cccc4ccc(c1)c2c34)c1ccccc1`, the emission maximum (in Cc1ccccc1) is reported as 399 nm.

For `Cc1ccc(/C=C(\c2ccccc2)c2nc3ccccc3o2)cc1`, the emission maximum (in C1CCCCC1) was 380 nm and the emission maximum (in CO) was 385 nm.

In the case of `CC1(C)c2ccccc2-c2cc3c(cc21)N(c1ccc(-c2nc(-c4ccc(N5c6ccccc6C(c6ccccc6)(c6ccccc6)c6cc7c(cc65)C(C)(C)c5ccccc5-7)cc4)nc(-c4ccc(N5c6ccccc6C(c6ccccc6)(c6ccccc6)c6cc7c(cc65)C(C)(C)c5ccccc5-7)cc4)n2)cc1)c1ccccc1C3(c1ccccc1)c1ccccc1`, the emission maximum (in Cc1ccccc1) is reported as 515 nm.

`COC(=O)COc1ccc(/C=C/C2=[N+]3C(=C(c4ccc(N5CCCCC5)cc4)c4c(C)cc(C)n4[B-]3(F)F)C(C)=C2)cc1` showed an emission maximum (in CO) of 581 nm.

Work on `CC(C)[Si](C#Cc1c2ccccc2c(C#C[Si](C(C)C)(C(C)C)C(C)C)c2nc3c(ccc4ccccc43)nc12)(C(C)C)C(C)C` yielded an emission maximum (in CCCCCC) of 553 nm.

Molecule `CN(C)c1ccc(C2=Cc3cccc[n+]3[B-](F)(F)O2)cc1` has an emission maximum (in C1CCOC1) of 499 nm, an emission maximum (in C1COCCO1) of 486 nm and an emission maximum (in CC1CCCCC1) of 447 nm. The emission maximum (in CC#N) was 528 nm, the emission maximum (in CCOC(C)=O) was 499 nm and the emission maximum (in CCOCC) was 477 nm. It also gave an emission maximum (in CN(C)C=O) of 530 nm, an emission maximum (in CO) of 517 nm and an emission maximum (in COC(C)=O) of 514 nm. It also gave an emission maximum (in ClC(Cl)Cl) of 490 nm.

Work on `N#Cc1c(N2CCCCC2)cc(-c2cccc3ccccc23)c2c1C(=O)c1ccccc1-2` yielded an emission maximum (in C1CCOC1) of 460 nm.

In the case of `CC1(C)c2ccccc2N(c2cccc(S(=O)(=O)c3cccc(N4c5ccccc5C(C)(C)c5ccccc54)c3)c2)c2ccccc21`, the emission maximum (in C1CCOC1) is reported as 422 nm, the emission maximum (in CCCCC(CC)n1c2ccc(-n3c4ccccc4c4ccccc43)cc2c2cc(-n3c4ccccc4c4ccccc43)ccc21) is reported as 509.28 nm and the emission maximum (in Cc1ccccc1) is reported as 489 nm. For the same molecule, the emission maximum (in ClC(Cl)Cl) was 515 nm and the emission maximum (in c1cc(-n2c3ccccc3c3ccccc32)cc(-n2c3ccccc3c3ccccc32)c1) was 505.12 nm.

In the case of `N#Cc1ncc(-c2c3ccccc3c(-c3cnc(C#N)nc3)c3ccccc23)cn1`, the emission maximum (in CCO) is reported as 520 nm and the emission maximum (in ClCCl) is reported as 464 nm.

In the case of `COc1ccc2c3ccc(OC)cc3c3cc4c(C)cc(=O)oc4cc3c2c1`, the emission maximum (in ClC(Cl)Cl) is reported as 475 nm.

`COc1ccc2cc(C3=[N+]4C(=Nc5c(-c6ccc7ccccc7c6)cc(-c6ccc7cc(OC)ccc7c6)n5[B-]4(F)F)C(c4ccc5ccccc5c4)=C3)ccc2c1` showed an emission maximum (in ClCCl) of 754 nm.

For `CC[n+]1c(-c2ccccc2)c2cc(-n3cccc3)ccc2c2ccc(N)cc21`, the emission maximum (in O) was 603 nm.

Molecule `O=[N+]([O-])c1ccc(/C=C/c2nc3c4ccccc4c4ccccc4c3o2)cc1` has an emission maximum (in CC#N) of 602 nm.

For `CCOC(=O)COc1ccc(/C=C/c2c(CC)c(C)c3n2[B-](F)(F)[N+]2=C(c4[nH]c(C)c(CC)c4C)c4ccccc4C2=C3C)cc1`, the emission maximum (in C1CCOC1) was 709 nm, the emission maximum (in CC#N) was 707 nm and the emission maximum (in CCCCCC) was 698 nm. For the same molecule, the emission maximum (in CO) was 711 nm, the emission maximum (in Cc1ccccc1) was 709 nm and the emission maximum (in ClCCl) was 714 nm.
